According to patent publication US20240408169A1 (priority 2023, published 2024):
Read-outs that look alike come from different tables or passages of the source. *1 amine or outer side, *2 acyl side, *3 side chain or, on linkers, in order; H or OH if unused. Where a SMILES comes first, the peptide text is derived from it. Bridges are numbered along the chain shown (N, C = ends). [ ]: non-standard residue; d: D form. The star is where a group is joined. X14 = Cc1nc(C)c(-c2ccc(Cl)cc2C[C@@H](C(=O)[*:2])N(C)[*:1])s1; X89 = CN([C@@H](Cc1cc(Cl)ccc1-c1cnn(CC#N)c1)C(=O)[*:2])[*:1]; NMehhhLys(Me) = CN([C@@H](CCCCCCCN(C)[*:3])C(=O)[*:2])[*:1]; Spiro(3.3)heptane2CO(2-CF3) = O=C(C1(C(F)(F)F)CC2(CCC2)C1)*; X51 = CSc1cncc(-c2ccc(Cl)cc2C[C@@H](C(=O)[*:2])N(C)[*:1])c1; X22 = CN([C@@H](Cc1cc(Cl)ccc1-c1cnn(C)c1)C(=O)[*:2])[*:1]; NMe3Pal(2-OMe,5-Cl) = CN[C@@H](Cc1cc(Cl)cnc1OC)C(=O)O; Oxane2carbonyl(2R-CF3) = O=C([C@@]1(C(F)(F)F)CCCCO1)*; Cyclobutanecarbonyl(1-CF3) = O=C(C1(C(F)(F)F)CCC1)*; cBuCO(3,3-F2-1-CF3) = O=C(C1(C(F)(F)F)CC(F)(F)C1)*; Pro(trans-4-F) = O=C(O)[C@@H]1C[C@@H](F)CN1; Gly(cPr) = N[C@H](C(=O)O)C1CC1

Columns and labels:
CyclinB1/CDK1 = target: T1, CyclinB1/CDK1 (Homo sapiens, UniProt P14635); assay: Fluorescence Polarization (FP) competitive binding assay, Cyclin B1/Cdk1;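 note: fluorescence polarization read after equilibration at room temperature, with IC50 taken from serially diluted dose-response curves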
T1 construct: purchased Eurofins, discovery 14-450

CyclinA2/CDK2 = target: T2, CyclinA2/CDK2 (Homo sapiens, UniProt P20248); assay: Fluorescence Polarization (FP) competitive binding assay, Cyclin A2/Cdk2;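 note: plates equilibrated two hours at room temperature before polarization reading, IC50 fitted from eight-concentration compound titration curves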
T2 construct: purchased CRELUX Protein Services

CyclinE1/CDK2 = target: T3, CyclinE1/CDK2 (Homo sapiens, UniProt P24864); assay: Fluorescence Polarization (FP) competitive binding assay, Cyclin E1/Cdk2;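 note: readings taken after two-hour equilibration at room temperature in HEPES buffer with NaCl, DTT, NP-40 and BSA, IC50 fitted from eight-concentration serial dilution series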
T3 construct: purchased Eurofins, discovery 14-475

WI-38 cells = assay: MTT proliferation assay, WI-38; assay type: cell-based; settings: 3 days compound exposure, 1:3 serial dilution starting at 10 μM;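 note: Eight- or ten-point dilution series, with exposure length chosen to span about three to four cell doublings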
OVCAR3 cells = assay: MTT proliferation assay, OVCAR3; assay type: cell-based; settings: 5 days compound exposure, 1:3 serial dilution starting at 10 μM;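 note: compound given as an 8- or 10-point series, one day after plating, with exposure covering roughly 3-4 cell doublings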
NCI-H1048 cells = assay: MTT proliferation assay, NCI-H1048; assay type: cell-based; settings: 5 days compound exposure, 1:3 serial dilution starting at 10 μM;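 note: Dose-response in 96-well plates over 8 or 10 concentration points, with exposure spanning 3-4 cell doublings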
[1] = 10 nM Cyclin B1/Cdk1, 2 nM FAM probe; average of 2-3 independent experiments; read-out: Cyclin B FP IC50
[2] = 8 nM Cyclin A2/Cdk2, 2 nM FAM probe, average of 2-3 independent experiments, read-out: Cyclin A FP IC50
[3] = 10 nM Cyclin E1/Cdk2, 2 nM FAM probe, average of 2-3 independent experiments, read-out: Cyclin E FP IC50
[4] = read-out: Cyclin B FP IC50; 10 nM Cyclin B1/Cdk1, 2 nM FAM probe; average of 2-3 independent experiments

Row | SMILES | IC50 (CyclinB1/CDK1; [1]) | IC50 (CyclinA2/CDK2; [2]) | IC50 (CyclinE1/CDK2; [3]) | GI50 (WI-38 cells) | GI50 (OVCAR3 cells) | GI50 (NCI-H1048 cells) | IC50 (CyclinB1/CDK1; [4]) | IC50 (CyclinA2/CDK2) | IC50 (CyclinE1/CDK2) | IC50 (CyclinA2/CDK2; read-out: Cyclin A FP IC50, 8 nM Cyclin A2/Cdk2, 2 nM FAM probe, average of 2-3 independent experiments)
1 | CSc1cncc(-c2ccc(Cl)cc2C[C@H]2C(=O)N(C)CCCCCCC[C@H](N(C)C(=O)[C@@H](NC(=O)[C@@H]3C[C@@H](F)CN3C(=O)C3(C(F)(F)F)CC(F)(F)C3)C3CC3)C(=O)N[C@@H](CC(C)C)C(=O)N2C)c1 [Example 202] ({cBuCO(3,3-F2-1-CF3)}-[Pro(trans-4-F)][Gly(cPr)][NMehhhLys(Me)]L[X51]; lactam 3-C) | 20 nM | 50 nM | 1490 nM | 9110 nM | 60 nM | 40 nM | – | – | – | –
2 | CC(C)C[C@@H]1NC(=O)[C@@H](N(C)C(=O)[C@@H](NC(=O)[C@@H]2C[C@@H](F)CN2C(=O)C2(C(F)(F)F)CC3(CCC3)C2)C2CC2)CCCCCCCN(C)C(=O)[C@H](Cc2cc(Cl)ccc2-c2cnn(C)c2)N(C)C1=O [Example 203] ({Spiro(3.3)heptane2CO(2-CF3)}-[Pro(trans-4-F)][Gly(cPr)][NMehhhLys(Me)]L[X22]; lactam 3-C) | – | – | – | 3700 nM | 50 nM | 60 nM | 20 nM | 40 nM | 1260 nM | –
3 | Cc1nc(C)c(-c2ccc(Cl)cc2C[C@H]2C(=O)N(C)CCCCCCC[C@H](N(C)C(=O)[C@@H](NC(=O)[C@@H]3C[C@@H](F)CN3C(=O)C3(C(F)(F)F)CC(F)(F)C3)C3CC3)C(=O)N[C@@H](CC(C)C)C(=O)N2C)s1 [Example 207] ({cBuCO(3,3-F2-1-CF3)}-[Pro(trans-4-F)][Gly(cPr)][NMehhhLys(Me)]L[X14]; lactam 3-C) | 20 nM | 50 nM | 2730 nM | 4940 nM | 40 nM | 30 nM | – | – | – | –
4 | CC(C)C[C@@H]1NC(=O)[C@@H](N(C)C(=O)[C@@H](NC(=O)[C@@H]2C[C@@H](F)CN2C(=O)C2(C(F)(F)F)CC(F)(F)C2)C2CC2)CCCCCCCN(C)C(=O)[C@H](Cc2cc(Cl)ccc2-c2cnn(CC#N)c2)N(C)C1=O [Example 216] ({cBuCO(3,3-F2-1-CF3)}-[Pro(trans-4-F)][Gly(cPr)][NMehhhLys(Me)]L[X89]; lactam 3-C) | – | – | – | 15600 nM | 10 nM | 10 nM | 20 nM | 30 nM | 470 nM | –
5 | CCN(C(=O)[C@@H](NC(=O)[C@@H]1C[C@@H](F)CN1C(=O)C1(C(F)(F)F)CC(F)(F)C1)C1CC1)[C@H]1CCCCCCCN(C)C(=O)[C@H](Cc2cc(Cl)cnc2OC2CC2)N(C)C(=O)[C@H](CC(C)C)NC1=O [Example 219] | – | – | – | 14100 nM | 80 nM | 40 nM | 20 nM | 100 nM | 1430 nM | –
6 | CCN(C(=O)[C@@H](NC(=O)[C@@H]1C[C@@H](F)CN1C(=O)C1(C(F)(F)F)CCC1)C1CC1)[C@H]1CCCCCCCN(C)C(=O)[C@H](Cc2cc(Cl)cnc2OC2CC2)N(C)C(=O)[C@H](CC(C)C)NC1=O [Example 220] | – | – | – | 5200 nM | 70 nM | 30 nM | 20 nM | 90 nM | 680 nM | –
7 | CCN(C(=O)[C@@H](NC(=O)[C@@H]1C[C@@H](F)CN1C(=O)[C@@]1(C(F)(F)F)CCCCO1)C1CC1)[C@H]1CCCCCCCN(C)C(=O)[C@H](Cc2cc(Cl)cnc2OC2CC2)N(C)C(=O)[C@H](CC(C)C)NC1=O [Example 221] | – | – | – | 16600 nM | 30 nM | 20 nM | 20 nM | 60 nM | 180 nM | –
8 | COc1ncc(Cl)cc1C[C@H]1C(=O)N(C)CCCCCCC[C@H](N(C)C(=O)[C@@H](NC(=O)[C@@H]2C[C@@H](F)CN2C(=O)[C@@]2(C(F)(F)F)CCCCO2)C2CC2)C(=O)N[C@@H](CC(C)C)C(=O)N1C [Example 223] ({Oxane2carbonyl(2R-CF3)}-[Pro(trans-4-F)][Gly(cPr)][NMehhhLys(Me)]L[NMe3Pal(2-OMe,5-Cl)]; lactam 3-C) | – | – | – | 7760 nM | 10 nM | 10 nM | 20 nM | – | 100 nM | 20 nM
9 | COc1ncc(Cl)cc1C[C@H]1C(=O)N(C)CCCCCCC[C@H](N(C)C(=O)[C@@H](NC(=O)[C@@H]2C[C@@H](F)CN2C(=O)C2(C(F)(F)F)CCC2)C2CC2)C(=O)N[C@@H](CC(C)C)C(=O)N1C [Example 224] ({Cyclobutanecarbonyl(1-CF3)}-[Pro(trans-4-F)][Gly(cPr)][NMehhhLys(Me)]L[NMe3Pal(2-OMe,5-Cl)]; lactam 3-C) | 20 nM | 30 nM | 100 nM | 12400 nM | 10 nM | 10 nM | – | – | – | –
